From ChEMBL document CHEMBL1201862, “PubChem BioAssay data set” (2004)
Calls of active or inactive are those of the source.

How the values were obtained:
[1] = biological target: T1, Serine/threonine-protein phosphatase (Candida dubliniensis (strain CD36 / CBS 7987 / NCPF 3949 / NRRLY-17841) (Yeast), UniProt B9W6M3); assay: blockers of CaCl2-induced CDRE-lacZ signaling – S. cerevisiae, luminescence, secondary, dose response (AID 2388); assay type: functional, cell-based;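 further: yeast reporter cells carrying a calcineurin-responsive lacZ construct stimulated with calcium chloride; luminescent beta-galactosidase reporter signal in whole cells rather than isolated phosphatase activity; potency for inhibition where a drop in reporter signal means calcineurin blockade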
T1 sequence (B9W6M3 whole entry): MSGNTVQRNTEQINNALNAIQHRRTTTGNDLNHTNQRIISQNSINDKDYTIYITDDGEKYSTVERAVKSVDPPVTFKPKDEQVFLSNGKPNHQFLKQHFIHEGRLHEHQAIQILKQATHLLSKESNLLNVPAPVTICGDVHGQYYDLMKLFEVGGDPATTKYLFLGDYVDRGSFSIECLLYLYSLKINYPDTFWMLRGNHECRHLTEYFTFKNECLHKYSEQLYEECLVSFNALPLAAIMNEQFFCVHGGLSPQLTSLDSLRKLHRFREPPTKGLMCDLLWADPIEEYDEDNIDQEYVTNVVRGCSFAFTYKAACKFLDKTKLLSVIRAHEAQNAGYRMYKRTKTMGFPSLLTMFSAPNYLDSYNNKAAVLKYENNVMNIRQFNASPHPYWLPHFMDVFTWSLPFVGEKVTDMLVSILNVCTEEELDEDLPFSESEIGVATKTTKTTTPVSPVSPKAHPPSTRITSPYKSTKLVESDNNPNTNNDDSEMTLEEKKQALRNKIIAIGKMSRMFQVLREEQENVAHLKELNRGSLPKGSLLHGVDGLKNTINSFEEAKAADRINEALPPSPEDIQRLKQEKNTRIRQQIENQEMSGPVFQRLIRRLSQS

HEK293 [2] = assay: cells; assay type: functional, cell-based; settings: Homo sapiens
[3] = DRD fibroblast viability loss – cell-based, non-viral oncogenic, luminescence, dose response (AID 1934); assay type: functional; settings: Homo sapiens
BJ [4] = assay: BJ-TERT-LT-ST fibroblast viability loss – cell-based, RAS-independent, luminescence, dose response (AID 1935); assay type: functional; settings: Homo sapiens;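 further: BJ fibroblasts immortalized with TERT plus LT and ST oncogenes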
[5] = alpha-synuclein stem-loop luciferase translation blockers – H4 neuroglioma cells, luminescence, confirmation (AID 1988); assay type: functional, cell-based
HEK293 [6] = assay: NOD2 signaling inhibitors in MDP-stimulated cells, cell-based, uHTS, luminescence (AID 2001); assay type: functional; settings: Homo sapiens
BJ [7] = assay: cells; assay type: functional, cell-based; settings: Homo sapiens
[8] = fluconazole-exposed Candida albicans growth modulators – fluorescence, retest, confirmation (AID 2467); assay type: functional, cell-based
[9] = luciferase reporter signal reduction – luminescence, H4-C neuroglioblastoma cells, dose response (AID 2458); assay type: functional, cell-based;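 further: H4 neuroglioblastoma cells stably carrying a luciferase reporter gene fusion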
[10] = biological target: Nucleotide-binding oligomerization domain-containing protein 2 (Homo sapiens, UniProt Q9HC29); assay: inhibition of NOD2-driven NF-kB reporter – cell-based, luminescence, uHTS, HEK293 (AID 1566); assay type: functional
Chain of Nucleotide-binding oligomerization domain-containing protein 2 (Q9HC29 whole entry, the tested form may be a part): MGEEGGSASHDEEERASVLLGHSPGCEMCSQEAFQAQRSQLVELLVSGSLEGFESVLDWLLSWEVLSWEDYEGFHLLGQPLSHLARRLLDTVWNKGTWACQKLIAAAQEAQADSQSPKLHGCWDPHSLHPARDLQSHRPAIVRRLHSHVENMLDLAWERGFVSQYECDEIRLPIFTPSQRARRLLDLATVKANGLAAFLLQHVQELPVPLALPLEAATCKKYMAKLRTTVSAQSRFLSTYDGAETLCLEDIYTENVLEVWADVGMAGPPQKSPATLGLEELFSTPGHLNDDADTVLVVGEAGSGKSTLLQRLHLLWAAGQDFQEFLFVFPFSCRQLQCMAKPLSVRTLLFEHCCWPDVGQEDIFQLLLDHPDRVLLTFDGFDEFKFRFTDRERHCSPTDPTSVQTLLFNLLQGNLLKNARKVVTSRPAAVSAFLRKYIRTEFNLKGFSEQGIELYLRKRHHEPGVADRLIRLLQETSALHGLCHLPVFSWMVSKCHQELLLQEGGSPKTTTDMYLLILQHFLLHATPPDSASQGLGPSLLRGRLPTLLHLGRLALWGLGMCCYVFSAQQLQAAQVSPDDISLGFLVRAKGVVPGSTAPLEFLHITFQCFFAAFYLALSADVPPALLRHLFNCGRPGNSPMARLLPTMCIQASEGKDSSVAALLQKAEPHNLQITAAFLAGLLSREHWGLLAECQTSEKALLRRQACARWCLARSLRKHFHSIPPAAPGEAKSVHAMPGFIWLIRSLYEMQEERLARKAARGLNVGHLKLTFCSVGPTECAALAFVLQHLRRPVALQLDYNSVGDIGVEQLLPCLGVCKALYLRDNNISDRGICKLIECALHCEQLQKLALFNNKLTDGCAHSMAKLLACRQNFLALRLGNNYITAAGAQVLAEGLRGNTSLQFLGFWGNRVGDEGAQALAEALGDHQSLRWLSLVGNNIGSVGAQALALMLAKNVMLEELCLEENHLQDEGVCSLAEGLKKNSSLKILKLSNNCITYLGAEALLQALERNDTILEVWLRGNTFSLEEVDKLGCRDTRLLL

HEK293 [11] = assay: inhibition of NOD1-driven NF-kB reporter – cell-based, luminescence, uHTS, primary screen (AID 1578); assay type: functional; settings: Homo sapiens
[12] = luciferase reporter signal suppression in cells – H4 neuroglioma cells, luminescence, dose response (AID 1990); assay type: functional, cell-based
[13] = Luminescence Cell-Based Dose Response HTS to Identify Inhibitors of 5'UTR Stem-Loop Driven Prion Protein mRNA Translation in H4 Neuroglioblastoma Cells. [Related pubchem assays: 1827 (Project Summary), 1813 (Primary HTS)]; assay type: functional
[14] = NIH-3T3 fibroblast cytotoxicity, dose response, cytotoxicity control, cell-based, fluorescence, Alamar Blue, secondary assay (AID 2327); assay type: functional;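 further: NIH-3T3 mouse fibroblasts cultured with fluconazole at 8 µg/mL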
HEK293 [15] = assay: cells; assay type: functional, cell-based; settings: Homo sapiens; remark: listed apart in the source
HEK293 [16] = assay: cells; assay type: functional, cell-based; settings: Homo sapiens; remark: listed apart in the source
BJ [17] = assay: BJ-TERT fibroblast viability loss – cell-based, RAS-independent, luminescence, dose response (AID 1933); assay type: functional; settings: Homo sapiens
cells = assay type: functional, cell-based
[18] = biological target: ATP-dependent molecular chaperone HSP82 (Candida albicans (strain WO-1) (Yeast), UniProt C4YTQ8); assay: steroid-induced GRE reporter decrease in yeast – S. cerevisiae, luminescence, Hsp90 inhibitor project, dose response (AID 2400); assay type: functional, cell-based;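 further: beta-galactosidase luminescence from glucocorticoid response element reporter as proxy for Hsp90 function; inhibitor potency where signal loss means Hsp90 inhibition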
Chain of ATP-dependent molecular chaperone HSP82 (C4YTQ8 whole entry): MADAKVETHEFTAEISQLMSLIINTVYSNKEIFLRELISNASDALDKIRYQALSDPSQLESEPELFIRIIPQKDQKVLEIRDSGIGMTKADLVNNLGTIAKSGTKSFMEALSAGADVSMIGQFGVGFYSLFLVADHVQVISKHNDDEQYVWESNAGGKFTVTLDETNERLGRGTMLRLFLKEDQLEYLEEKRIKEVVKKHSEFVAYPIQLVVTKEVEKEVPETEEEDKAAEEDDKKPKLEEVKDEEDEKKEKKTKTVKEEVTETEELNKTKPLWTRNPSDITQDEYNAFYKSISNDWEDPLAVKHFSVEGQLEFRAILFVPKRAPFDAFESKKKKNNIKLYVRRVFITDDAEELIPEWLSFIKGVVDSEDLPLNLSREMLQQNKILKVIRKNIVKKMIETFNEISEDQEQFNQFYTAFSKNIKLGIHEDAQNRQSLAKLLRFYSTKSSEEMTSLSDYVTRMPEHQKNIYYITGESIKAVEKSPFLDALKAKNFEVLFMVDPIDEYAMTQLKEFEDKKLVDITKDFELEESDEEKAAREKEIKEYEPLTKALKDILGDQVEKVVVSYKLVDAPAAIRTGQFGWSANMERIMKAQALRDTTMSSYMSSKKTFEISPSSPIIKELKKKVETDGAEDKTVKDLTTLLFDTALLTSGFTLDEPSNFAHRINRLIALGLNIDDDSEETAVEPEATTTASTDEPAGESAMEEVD

[19] = alpha-synuclein stem-loop translation blockers – luminescence, H4 neuroglioblastoma cells, dose confirmation, confirmation (AID 2454); assay type: functional, cell-based;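 further: H4 neuroglioblastoma cells carrying an alpha-synuclein 5'UTR luciferase reporter; potency for inhibition of the luciferase signal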
BJ [20] = assay: growth inhibition of engineered Ras-driven BJ cells – cell-based, alamar blue fluorescence, cherrypicked samples, dose response (AID 2631); assay type: functional; settings: Homo sapiens;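 further: confirmatory dose-response assay in RAS-dependent BJ fibroblasts engineered with TERT, LT and ST, with cytotoxicity read by fluorescence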
HeLa = assay: Cytotoxicity counterscreen assay for transcriptional activators of heat shock protein 70 (Hsp70). [Related pubchem assays: 1203, 1252 ]; assay type: functional; settings: Homo sapiens;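 further: cells exposed to compound for 16 hours before readout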
[21] = biological target: T2, Heat shock factor protein 1 (Mus musculus, UniProt P38532); assay: decrease of HSF1-responsive luciferase luminescence – cell-based, NIH3T3, dose retest, confirmation (AID 2382); assay type: functional;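 further: NIH3T3 fibroblasts with HSF1-driven luciferase reporter stressed by proteasome inhibitor MG132; luminescence from HSF1-driven luciferase expression after 8 hours of MG132 stress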
T2 sequence (P38532 whole entry): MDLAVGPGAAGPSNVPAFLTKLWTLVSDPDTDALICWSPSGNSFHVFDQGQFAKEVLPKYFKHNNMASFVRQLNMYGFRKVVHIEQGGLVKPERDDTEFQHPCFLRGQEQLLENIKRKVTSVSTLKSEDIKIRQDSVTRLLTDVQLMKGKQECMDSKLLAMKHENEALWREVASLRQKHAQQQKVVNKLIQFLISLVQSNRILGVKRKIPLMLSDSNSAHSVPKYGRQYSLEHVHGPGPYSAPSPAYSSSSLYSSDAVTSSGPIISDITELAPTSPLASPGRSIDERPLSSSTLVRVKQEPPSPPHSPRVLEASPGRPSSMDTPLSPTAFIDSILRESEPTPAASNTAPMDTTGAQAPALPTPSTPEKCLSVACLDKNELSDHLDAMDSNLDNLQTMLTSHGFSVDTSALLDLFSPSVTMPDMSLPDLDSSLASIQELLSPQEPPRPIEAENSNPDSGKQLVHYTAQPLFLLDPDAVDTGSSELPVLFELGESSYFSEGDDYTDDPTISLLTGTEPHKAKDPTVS

Wee1-like protein kinase = Wee1-like protein kinase (Homo sapiens, UniProt P30291); assay: Dose Response Cell-based Assay for Inhibitors of Wee1 Degradation. [Related pubchem assays: 1410, 1321 ]; assay type: functional
Chain of Wee1-like protein kinase (P30291 whole entry): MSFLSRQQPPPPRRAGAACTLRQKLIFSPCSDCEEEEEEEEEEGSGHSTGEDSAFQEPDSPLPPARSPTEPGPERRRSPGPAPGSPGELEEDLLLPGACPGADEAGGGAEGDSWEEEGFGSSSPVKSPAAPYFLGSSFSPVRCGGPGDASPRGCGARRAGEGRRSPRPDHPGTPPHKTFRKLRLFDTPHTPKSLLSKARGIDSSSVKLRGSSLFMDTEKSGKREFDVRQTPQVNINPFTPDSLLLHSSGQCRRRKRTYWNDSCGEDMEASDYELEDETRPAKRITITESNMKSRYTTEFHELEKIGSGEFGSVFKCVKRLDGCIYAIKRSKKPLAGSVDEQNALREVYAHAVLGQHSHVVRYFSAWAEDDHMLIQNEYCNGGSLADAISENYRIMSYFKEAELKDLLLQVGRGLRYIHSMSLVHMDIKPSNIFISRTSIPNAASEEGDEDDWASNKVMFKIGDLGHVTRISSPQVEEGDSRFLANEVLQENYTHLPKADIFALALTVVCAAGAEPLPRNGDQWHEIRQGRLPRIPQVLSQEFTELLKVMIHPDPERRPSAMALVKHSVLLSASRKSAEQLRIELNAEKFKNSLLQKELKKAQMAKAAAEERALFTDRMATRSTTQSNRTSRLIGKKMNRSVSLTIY

INS1 = assay: INS-1E survival protection against cytokine death – cell-based, luminescence, retest, dose response (AID 449756); assay type: functional; settings: Rattus norvegicus;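 further: cell death triggered by IL-1 beta plus TNF-alpha plus IFN-gamma mixture; protective hits raise ATP signal compared with cytokine alone wells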
[22] = biological target: G2/mitotic-specific cyclin-B1 (Homo sapiens, UniProt P14635); assay: Counterscreen assay for inhibitors of Wee1 degradation: dose response cell-based assay to identify inhibitors of cyclin B degradation. [Related pubchem assays: 1410, 1321 ]; assay type: functional
[23] = biological target: T3, Type-1 angiotensin II receptor (Homo sapiens, UniProt P30556); assay: antagonism of angiotensin II type 1 receptor – cell-based, uHTS hits, selectivity assay for APJ receptor antagonist project, dose response (AID 463214); assay type: functional;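 further: antagonist potency against angiotensin II stimulated AT1 response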
T3 sequence (P30556 whole entry): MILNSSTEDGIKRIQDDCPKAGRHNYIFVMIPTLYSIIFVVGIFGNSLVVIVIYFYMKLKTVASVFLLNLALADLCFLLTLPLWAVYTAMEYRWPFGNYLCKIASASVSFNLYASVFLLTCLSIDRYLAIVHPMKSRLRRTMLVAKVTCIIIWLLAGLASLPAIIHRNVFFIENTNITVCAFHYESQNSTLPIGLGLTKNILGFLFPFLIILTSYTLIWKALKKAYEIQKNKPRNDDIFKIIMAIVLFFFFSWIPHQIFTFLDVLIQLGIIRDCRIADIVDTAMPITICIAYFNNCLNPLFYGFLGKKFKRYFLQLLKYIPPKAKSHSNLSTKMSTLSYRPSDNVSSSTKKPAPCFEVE

[24] = biological target: Sphingosine 1-phosphate receptor 2 (Homo sapiens, UniProt O95136); assay: Dose Response Cell Based Assay for Antagonists of the S1P2 Receptor. [Related pubchem assays: 856, 736 ]; assay type: functional
Chain of Sphingosine 1-phosphate receptor 2 (O95136 whole entry): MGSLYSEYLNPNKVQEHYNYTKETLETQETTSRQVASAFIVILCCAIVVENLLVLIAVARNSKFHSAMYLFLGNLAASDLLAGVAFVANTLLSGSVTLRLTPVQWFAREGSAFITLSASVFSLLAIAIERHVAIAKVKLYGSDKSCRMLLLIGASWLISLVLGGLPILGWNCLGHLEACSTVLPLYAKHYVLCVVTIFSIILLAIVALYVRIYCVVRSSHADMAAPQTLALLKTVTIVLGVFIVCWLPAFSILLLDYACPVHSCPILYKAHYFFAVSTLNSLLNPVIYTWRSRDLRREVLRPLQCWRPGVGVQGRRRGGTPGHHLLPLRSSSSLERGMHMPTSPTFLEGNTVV

[25] = HEK-293T viability loss after treatment – luminescence, T-cell screen hits, cytotoxicity control for TCR NF-kB inhibitor project, dose response (AID 489026); assay type: functional, cell-based;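 further: cells exposed to compound about 14 hours before the viability readout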
[26] = biological target: Sphingosine 1-phosphate receptor 4 (Homo sapiens, UniProt O95977); assay: Fluorescence dose response cell-based high throughput screening assay for antagonists of the Sphingosine 1-Phosphate Receptor 4 (S1P4). [Related pubchem assays: 1524 (Confirmation in triplicates.), 1510 (Primary screen.)]; assay type: functional
Chain of Sphingosine 1-phosphate receptor 4 (O95977 whole entry): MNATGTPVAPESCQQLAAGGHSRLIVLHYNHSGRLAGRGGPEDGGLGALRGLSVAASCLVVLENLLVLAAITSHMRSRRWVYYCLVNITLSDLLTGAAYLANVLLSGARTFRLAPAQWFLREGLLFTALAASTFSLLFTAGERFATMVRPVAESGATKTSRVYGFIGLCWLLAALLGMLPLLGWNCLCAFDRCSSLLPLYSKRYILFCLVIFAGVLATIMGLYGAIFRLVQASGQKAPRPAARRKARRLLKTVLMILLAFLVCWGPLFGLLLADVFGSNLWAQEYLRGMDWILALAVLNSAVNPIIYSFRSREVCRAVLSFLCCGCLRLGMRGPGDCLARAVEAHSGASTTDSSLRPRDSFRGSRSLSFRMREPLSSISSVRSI

[27] = microbe, parasite or virus in culture; assay type: functional; settings: Mycobacterium tuberculosis
[28] = biological target: Sphingosine 1-phosphate receptor 1 (Homo sapiens, UniProt P21453); assay type: functional;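 further: Tango beta-arrestin reporter U2OS cells stimulated with S1P near its EC80; inhibitor potency meaning antagonism of receptor activation by the natural agonist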
Chain of Sphingosine 1-phosphate receptor 1 (P21453 whole entry): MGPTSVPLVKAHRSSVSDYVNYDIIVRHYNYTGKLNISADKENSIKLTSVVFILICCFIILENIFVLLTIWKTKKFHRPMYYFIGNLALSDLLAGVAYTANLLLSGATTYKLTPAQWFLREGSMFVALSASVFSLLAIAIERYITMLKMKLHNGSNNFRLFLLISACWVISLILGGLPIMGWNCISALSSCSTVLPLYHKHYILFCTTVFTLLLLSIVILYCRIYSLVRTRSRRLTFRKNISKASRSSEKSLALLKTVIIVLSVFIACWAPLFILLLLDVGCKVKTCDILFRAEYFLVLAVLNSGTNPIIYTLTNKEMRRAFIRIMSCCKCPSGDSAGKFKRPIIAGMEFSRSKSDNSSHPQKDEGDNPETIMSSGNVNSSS

Beta-galactosidase [29] = biological target: T4, Beta-galactosidase (Escherichia coli, UniProt Q8VNN2); assay: PubChem AID 485352; assay type: functional
T4 sequence (Q8VNN2 whole entry): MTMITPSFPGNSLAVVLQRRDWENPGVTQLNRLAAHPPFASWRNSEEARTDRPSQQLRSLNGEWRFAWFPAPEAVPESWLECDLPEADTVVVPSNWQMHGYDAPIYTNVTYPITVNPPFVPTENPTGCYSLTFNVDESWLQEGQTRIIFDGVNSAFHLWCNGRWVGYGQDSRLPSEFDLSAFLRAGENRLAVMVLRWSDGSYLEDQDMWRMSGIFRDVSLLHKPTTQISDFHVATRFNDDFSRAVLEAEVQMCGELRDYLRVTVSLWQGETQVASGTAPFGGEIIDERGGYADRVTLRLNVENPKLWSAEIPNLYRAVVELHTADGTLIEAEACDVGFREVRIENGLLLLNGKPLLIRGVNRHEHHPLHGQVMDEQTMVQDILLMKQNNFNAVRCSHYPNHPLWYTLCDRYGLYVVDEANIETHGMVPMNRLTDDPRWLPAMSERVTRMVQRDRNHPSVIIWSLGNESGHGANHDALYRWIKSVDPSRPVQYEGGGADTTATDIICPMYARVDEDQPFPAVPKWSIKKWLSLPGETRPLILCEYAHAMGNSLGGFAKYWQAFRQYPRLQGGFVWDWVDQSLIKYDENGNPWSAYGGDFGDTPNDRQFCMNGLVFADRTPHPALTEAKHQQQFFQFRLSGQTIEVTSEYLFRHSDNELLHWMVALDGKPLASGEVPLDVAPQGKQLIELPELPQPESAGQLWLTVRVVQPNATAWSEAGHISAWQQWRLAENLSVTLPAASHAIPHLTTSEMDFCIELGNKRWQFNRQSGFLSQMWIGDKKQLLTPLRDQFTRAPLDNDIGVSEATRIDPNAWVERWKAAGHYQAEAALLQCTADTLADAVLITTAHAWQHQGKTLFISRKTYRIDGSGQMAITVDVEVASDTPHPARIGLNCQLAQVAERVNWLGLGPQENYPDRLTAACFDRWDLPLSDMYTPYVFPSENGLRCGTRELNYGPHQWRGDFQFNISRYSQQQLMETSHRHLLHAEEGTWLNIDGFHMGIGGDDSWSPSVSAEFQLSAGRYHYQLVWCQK

[30] = ADP-Glo luciferase signal interference – biochemical, luminescence, cherry-picked samples, set 2, artefact control for CDK5 inhibitor project, dose response (AID 504546); assay type: functional, cell-based
[31] = Luminescence Cell-Based Dose Confirmation HTS to Identify Inhibitors of Platelet Dense Granule Release. [Related pubchem assays: 1663 (Primary HTS), 1678 (Summary of Project)]; assay type: functional
Cytochrome P450 2C9 = Cytochrome P450 2C9 (Homo sapiens, UniProt P11712); settings: Potency
Cytochrome P450 2D6 = Cytochrome P450 2D6 (Homo sapiens, UniProt P10635); assay: qHTS Assay for Inhibitors and Substrates of Cytochrome P450 2D6. [Related pubchem assays: 410 ]; assay type: ADME; settings: read-out: Potency
Chain of Cytochrome P450 2D6 (P10635 whole entry): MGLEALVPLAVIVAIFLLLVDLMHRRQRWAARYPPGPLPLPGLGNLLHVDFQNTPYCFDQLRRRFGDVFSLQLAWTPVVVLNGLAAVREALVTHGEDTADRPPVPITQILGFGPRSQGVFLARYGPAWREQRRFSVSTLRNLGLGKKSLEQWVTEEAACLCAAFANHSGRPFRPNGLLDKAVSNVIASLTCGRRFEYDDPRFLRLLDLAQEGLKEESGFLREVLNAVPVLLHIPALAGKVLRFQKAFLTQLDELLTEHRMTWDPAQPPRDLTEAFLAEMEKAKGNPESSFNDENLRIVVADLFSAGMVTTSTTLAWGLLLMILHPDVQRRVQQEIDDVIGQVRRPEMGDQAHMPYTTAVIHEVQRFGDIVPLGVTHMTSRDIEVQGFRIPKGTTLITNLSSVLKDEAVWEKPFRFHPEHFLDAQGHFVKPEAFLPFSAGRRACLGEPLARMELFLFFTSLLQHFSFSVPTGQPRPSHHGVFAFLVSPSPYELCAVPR

Cytochrome P450 2C19 = Cytochrome P450 2C19 (Homo sapiens, UniProt P33261); assay: qHTS Assay for Inhibitors and Substrates of Cytochrome P450 2C19. [Related pubchem assays: 410 ]; assay type: ADME; settings: read-out: Potency
[32] = reduction of Shn3 3'UTR-driven luciferase in osteoblasts – cell-based, Clone20 osteoblasts, firefly luciferase, cherry-picked, dose response (AID 624132); assay type: functional;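 further: firefly luciferase luminescence from reporter carrying the Shn3 3'UTR in osteoblasts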
[33] = biological target: C-C chemokine receptor type 6 (Homo sapiens, UniProt P51684); assay: antagonism of CCR6 beta-arrestin recruitment – cell-based, luminescent beta-arrestin readout, dose response (AID 504728); assay type: functional
[34] = loss of viability in HepG2 cells – cell-based, CellTiter-Glo, cherry-picked, cytotoxicity control for Shn3 inhibitor project, dose response (AID 624134); assay type: functional
[35] = non-specific 3'UTR reporter inhibition in Clone20-Shn3RL – cell-based, Renilla luciferase, cherry-picked, counter-screen for Shn3 inhibitor project, dose response (AID 624133); assay type: functional
Beta-galactosidase [36] = biological target: T4, Beta-galactosidase; assay: detection-enzyme interference by beta-gal modulators – biochemical, E. coli enzyme, set 3, artefact control for CCR6 antagonist project, dose response (AID 504712); assay type: functional
[37] = biological target: Voltage-gated N-type calcium channel alpha-1B subunit/Amyloid beta A4 precursor protein-binding family A member 1 (Homo sapiens, UniProt Q00975+Q02410); assay: disruptors of Mint-PDZ/N-type channel peptide interaction – biochemical, HTRF, set 2, SAR follow-up (AID 434980); assay type: functional

With `COc1ccc(-c2nnc(NC(=O)c3ccc(S(=O)(=O)N4CCc5ccccc5C4)cc3)o2)cc1` the EC50 [1] was > 180 µM (inactive), the IC50 (HEK293 [2]) was > 20 µM (inactive) and the EC50 [3] was 90.3 µM (active). For the same compound, the EC50 (BJ [4]) was > 150 µM (inconclusive), the EC50 [5] was 0.139 µM (active) and the IC50 (HEK293 [6]) was 19.6 µM (inactive). The EC50 (BJ [7]) was 132 µM (inconclusive), the EC50 [8] was 0.256 µM (active) and the EC50 [9] was > 12 µM (not active). For the same compound, the EC50 [10] was > 20 µM (inactive), the EC50 (HEK293 [11]) was > 20 µM (inactive) and the EC50 [12] was < 0.1 µM (active). For the same compound, the EC50 [13] was < 0.1 µM (active), the EC50 [14] was > 150 µM (inactive) and the IC50 (HEK293 [15]) was > 20 µM (inactive). The IC50 (HEK293 [16]) was > 20 µM (inactive), the EC50 (BJ [17]) was 92.6 µM (active) and the EC50 (cells) was > 12 µM (not active). For the same compound, the EC50 [18] was > 150 µM (inactive), the EC50 [19] was > 12 µM (not active) and the EC50 (BJ [20]) was 9.02 µM (active).
With `CCCCS(=O)(=O)/C=C\C=C/S(=O)(=O)CCCC` the CC50 (HeLa) was 9.43 µM (active), the EC50 [21] was 3.04 µM (active) and the EC50 (Wee1-like protein kinase) was > 49.7 µM (not active). For the same compound, the AC50 (INS1) was 3.25 µM (active), the EC50 [22] was > 5.53 µM (active) and the IC50 [23] was 3.67 µM (active). The IC50 [24] was 4.5 µM (active), the IC50 [25] was 52.6 µM (inactive) and the IC50 [26] was 1.28 µM (active). For the same compound, the CC50 [27] was 3.13 µM (active), the IC50 [28] was 13.7 µM (not active) and the EC50 (Beta-galactosidase [29]) was > 40 µM (inactive).
With `COc1ccc(C(=O)O/N=C(\N)c2ccccc2)cc1` the AC50 [30] was 37.7 µM (active) and the EC50 [31] was 0.921 µM (active).
For `CCCCCCC#Cc1cc(OC)c(OC)cc1C(N1CC(C)c2ccccc21)N1CC(C)c2ccccc21` (centres undefined), the AC50 (Cytochrome P450 2C9) was 3.16 µM (inconclusive), the AC50 (Cytochrome P450 2D6) was 7.94 µM (inconclusive) and the AC50 (Cytochrome P450 2C19) was 3.98 µM (inconclusive).
In the case of `O=C1C(Br)=C(c2ccccc2)C(c2ccccc2)=C1c1ccccc1`, the AC50 [32] is reported as 0.46 µM (active), the IC50 [33] is reported as > 66.6 µM (inactive) and the AC50 [34] is reported as 38.8 µM (active). The AC50 [35] was 4.75 µM (active) and the IC50 (Beta-galactosidase [36]) was > 66.6 µM (inactive).
For `O=C(c1cc(-c2ccco2)nc2ccccc12)N1CCC(c2ccccc2)CC1`, the IC50 [37] was > 56.8 µM (inactive).
